In ChEMBL document CHEMBL1123906, “Folate analogues. 30. Synthesis and biological evaluation of N10-propargyl-5,8-dideaza-5,6,7,8-tetrahydrofolic acid and related compounds” (J Med Chem, 1987):

Key:
Lacticaseibacillus casei [1] = assay: Antimicrobial activity against Lactobacillus casei MTX-resistant strain; assay type: functional; parameters: unit not given here
Enterococcus faecium [2] = assay: Antimicrobial activity against Streptococcus faecium strain, MTX-resistant; assay type: functional; parameters: unit not given here
[3] = molecular target: T1, Dihydropteroate synthase (Escherichia coli K-12) (UniProt P0AC13); assay: Inhibition of E. uM; conditions: concentration not given here
T1 sequence (whole entry): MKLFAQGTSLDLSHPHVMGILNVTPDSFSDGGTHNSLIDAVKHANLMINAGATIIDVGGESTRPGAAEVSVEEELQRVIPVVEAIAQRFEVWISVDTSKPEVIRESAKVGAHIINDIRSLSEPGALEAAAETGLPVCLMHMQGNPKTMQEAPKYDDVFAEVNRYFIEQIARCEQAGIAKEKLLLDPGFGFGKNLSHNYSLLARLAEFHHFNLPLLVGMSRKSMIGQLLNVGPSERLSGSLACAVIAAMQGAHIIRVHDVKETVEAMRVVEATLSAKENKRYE

Lacticaseibacillus casei [4] = assay: Antimicrobial activity against Lactobacillus casei strain ATCC 7469; assay type: functional; parameters: unit not given here
Enterococcus faecium [5] = assay: Antimicrobial activity against Streptococcus faecium strain, ATCC 8043; assay type: functional
Enterococcus faecium [6] = assay: Antimicrobial activity against Streptococcus faecium strain ATCC 8043; assay type: functional; parameters: unit not given here
Thymidylate synthase [7] = molecular target: T2, Thymidylate synthase (Mus musculus, UniProt P07607); assay: Evaluated for the inhibition of thymidylate synthase in intact L1210 cells; assay type: cell-based
T2 sequence (P07607 whole entry): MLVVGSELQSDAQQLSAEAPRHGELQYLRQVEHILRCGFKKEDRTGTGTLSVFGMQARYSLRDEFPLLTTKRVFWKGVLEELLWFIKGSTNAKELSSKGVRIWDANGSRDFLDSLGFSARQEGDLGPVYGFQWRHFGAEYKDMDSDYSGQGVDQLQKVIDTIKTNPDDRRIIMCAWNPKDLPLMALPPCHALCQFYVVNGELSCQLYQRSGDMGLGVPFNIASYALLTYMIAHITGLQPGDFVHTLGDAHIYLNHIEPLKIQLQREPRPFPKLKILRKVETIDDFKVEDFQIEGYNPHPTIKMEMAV

[8] = test system: Thymidylate synthase (Bos taurus); assay: Inhibition of Calf thymus thymidylate synthase in the presence of 20 uM
Dihydrofolate reductase = Dihydrofolate reductase (Lactobacillus casei, UniProt P00381); assay: Evaluated for the inhibition of dihydrofolate reductase in Lactobacillus casei; parameters: species or system Lacticaseibacillus casei
Chain of Dihydrofolate reductase (P00381 whole entry): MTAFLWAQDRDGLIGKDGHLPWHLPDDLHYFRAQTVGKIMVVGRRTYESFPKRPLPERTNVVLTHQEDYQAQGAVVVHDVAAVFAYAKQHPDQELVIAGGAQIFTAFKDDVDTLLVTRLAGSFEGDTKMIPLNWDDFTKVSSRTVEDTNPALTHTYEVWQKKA

Thymidylate synthase [9] = molecular target: T3, Thymidylate synthase (Lactobacillus casei, UniProt P00469); assay: Evaluated for the inhibition of thymidylate synthase in Lactobacillus casei; parameters: species or system Lacticaseibacillus casei
T3 sequence (P00469 whole entry): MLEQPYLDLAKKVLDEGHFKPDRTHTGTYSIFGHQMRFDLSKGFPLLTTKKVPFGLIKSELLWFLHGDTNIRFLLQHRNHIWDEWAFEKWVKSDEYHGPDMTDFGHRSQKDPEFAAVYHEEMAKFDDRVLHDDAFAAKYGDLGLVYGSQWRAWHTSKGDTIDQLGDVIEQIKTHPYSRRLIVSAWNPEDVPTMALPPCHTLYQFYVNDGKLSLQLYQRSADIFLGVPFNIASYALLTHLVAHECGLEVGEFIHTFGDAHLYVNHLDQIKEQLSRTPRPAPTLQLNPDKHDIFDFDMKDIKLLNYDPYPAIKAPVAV

Thymidylate synthase [10] = molecular target: T2, Thymidylate synthase; assay: Evaluated for the inhibition of thymidylate synthase in permeabilised L1210 cells; assay type: cell-based

Row | SMILES | Activity (Lacticaseibacillus casei [1]) | Activity (Enterococcus faecium [2]) | inhibition [3] | Activity (Lacticaseibacillus casei [4]) | Activity (Enterococcus faecium [5]) | Activity (Enterococcus faecium [6]) | IC50 (Thymidylate synthase [7]) | inhibition [8] | IC50 (Dihydrofolate reductase) | IC50 (Thymidylate synthase [9]) | IC50 (Thymidylate synthase [10])
1 | CN(CC1CCc2nc(N)nc(O)c2C1)c1ccc(C(=O)NC(CCC(=O)O)C(=O)O)cc1 (configuration not stated) | >20000 | 13 | 35.1% | 2.8 | 0.57 |  |  |  |  |  | 
2 | C#CCN(Cc1ccc2[nH]c(N)nc(=O)c2c1)c1ccc(C(=O)NC(CCC(=O)O)C(=O)O)cc1 (configuration not stated) | 6400 | 20 |  | 0.4 |  | 0.13 |  |  |  |  | 
3 | C#CCN(CC1CCc2nc(N)nc(O)c2C1)c1ccc(C(=O)NC(CCC(=O)O)C(=O)O)cc1 (configuration not stated) | >10000 | 350 |  | 4.7 | 1.8 |  | 1100 µM | 50% | 10 µM | 23 µM | 11 µM
4 | Nc1nc(O)c2c(n1)CCC(CO)C2 (configuration not stated) |  |  | 1.3% |  |  |  |  |  |  |  | 
5 | C#CCN(CC1CCc2nc(N)nc(O)c2C1)c1ccc(C(=O)O)cc1 (configuration not stated) | >20000 | 14000 |  | 1000 |  | 26 |  |  | 190 µM | 610 µM | 
6 | CN(CC1CCc2nc(N)[nH]c(=O)c2C1)c1ccc(C(=O)NC(CCC(=O)O)C(=O)O)cc1 (configuration not stated) |  |  |  |  |  |  |  |  | 16 µM | 120 µM | 
7 | Nc1nc(O)c2c(n1)CCC(CNc1ccc(C(=O)NC(CCC(=O)O)C(=O)O)cc1)C2 (configuration not stated) | >20000 | 900 |  | 7.5 | 140 |  | 1000 µM |  | 30 µM | > 280 µM | 12 µM
8 | CN(CC1CCc2nc(N)nc(O)c2C1)c1ccc(C(=O)O)cc1 (configuration not stated) | >20000 | 8200 |  | 15800 |  | 5.2 |  |  | > 200 µM | > 200 µM | 
9 | Nc1nc(O)c2c(n1)CCC(CNc1ccc(C(=O)O)cc1)C2 (configuration not stated) |  | >20000 |  | >20000 |  | 400 |  |  | > 200 µM | > 200 µM | 
10 | Nc1nc(O)c2c(n1)CCC(CBr)C2 (configuration not stated) |  |  | 7% |  |  |  |  |  |  |  | 
